Reference: US20240390335A1, “PHARMACEUTICAL COMPOSITION CONTAINING BETA-LACTAM COMPOUND AND USE THEREOF” (priority 2021, published 2024)
Where two headings read alike, the source gives them in different places.

What was measured:
Acinetobacter baumannii = test: MIC assay of individual compounds (microdilution, CLSI/NCCLS); assay type: cell-based; settings: individual compound, read-out: MIC
Experimental: (§1) Mueller-Hinton broth (MH broth) medium, Trypticase Soy Broth (TSB Broth) medium, purchased from BD Difco, Cockeysville, MD, USA; • 96-well plate: Corning Costar, Cambridge, MA, USA; • Test method: the antibacterial activities were tested by the microdilution method according to the CLSI/NCCLS standard.
(§2) (1) Preparation of the test samples: 4 mg of each sample was taken, and was prepared into a test solution at 1,024 μg/mL with MH broth, and the test solution was diluted two-fold in a 96-well plate to prepare solutions of a series of gradient concentrations, the volume in each well being 90 μL.
(§3) (2) Preparation of a bacteria solution: The test strains were amplified by Trypticase Soy Broth (TSB Broth) according to the CLSI/NCCLS standard.
(§4) (3) Addition of the samples: a bacteria solution with a concentration of 6×10^5 cfu/mL was prepared, and 10 μL of the bacteria solution was pipetted into each well of the 96-well plate. Three parallel experiments were set up for each concentration and the results were averaged. To the negative control group, 10 μL of the bacterial solution and 90 μL MH broth were added.
(§5) (4) Incubation: the 96-well plate was placed in a 37° C. constant-temperature incubator for 18 hours, and the growth of the strains was observed. The drug concentration in the well with no microbial growth was recorded as the MIC.

Enterobacter cloacae = test: as above; assay type: cell-based; settings: individual compound, read-out: MIC
Experimental: as §1, §2, §3, §4, §5

Escherichia coli [1] = test: as above; assay type: cell-based; settings: individual compound, read-out: MIC
Experimental: as §1, §2, §3, §4, §5

Klebsiella pneumoniae [2] = test: as above; assay type: cell-based; settings: Klebsiella pneumoniae, read-out: MIC
Experimental: as §1, §2, §3, §4, §5

Pseudomonas aeruginosa [3] = test: as above; assay type: cell-based; settings: individual compound, read-out: MIC
Experimental: as §1, §2, §3, §4, §5

Escherichia coli [4] = test: Combined in vitro use, checkerboard dilution method; assay type: cell-based
Experimental: (§6) Mueller-Hinton broth (MH broth) medium, Trypticase Soy Broth (TSB Broth) medium, purchased from BD Difco, Cockeysville, MD, USA; • 96-well plate: Corning Costar, Cambridge, MA, USA; • Test method: the checkerboard dilution method was used for determination.
(§7) (1) Preparation of the test samples: 4 mg of each sample was taken and was prepared into a test solution at 2,048 μg/mL with MH broth, and the test solution was diluted two-fold in a 96-well plate to prepare solutions of a series of gradient concentrations.
as §3
(§8) (3) Addition of the samples: 10 μL of the bacteria solution with a concentration of 6×10^5 CFU/mL was pipetted into each well of the 96-well plate. Each well contained the antibacterial drugs (the compound of formula (I-1) and the compound of formula (I-2)) diluted two-fold with broth and the aforementioned lactamase inhibitor or efflux pump inhibitor. […] The samples were mixed thoroughly. Three parallel experiments were set up for each concentration and the results were averaged. To the negative control group, 10 μL of the bacterial solution and 90 μL MH broth were added.
(§9) (4) Incubation: the 96-well plate was placed in a 37° C. constant-temperature incubator for 18 hours, and the growth of the strains was observed.
(§10) (5) Calculation: The in vitro effect of each drug-inhibitor combination was analyzed by calculating the FICI value: FICI=(MIC of drug A in the combination/MIC of drug A alone)+ (MIC of drug B in the combination/MIC of drug B alone).
(§11) In order to ensure the reliability of the data, three repeated tests were conducted on different dates and the results were averaged.

Klebsiella pneumoniae [5] = test: as above; assay type: cell-based
Experimental: as §6, §7, §3, §8, §9, §10, §11

Pseudomonas aeruginosa [6] = test: as above; assay type: cell-based
Experimental: as §6, §7, §3, §8, §9, §10, §11

[7] = test system: Klebsiella pneumoniae ATCC BAA2146 (NDM-1); test: Protective effect on mice systemically infected (survival within 7 days); assay type: in vivo, ICR mice; settings: for Number of animals survived: 5 mice
Experimental: ICR mice (half male and half female) with healthy appearance and a weight of 18 to 22 g were used. The mice were randomly grouped, with 5 mice (either male or female) in each dose group.
To the mice infected intraperitoneally with NDM-1-producing Klebsiella pneumoniae (at a dose of 3.0×10^6 CFU), drugs were administered once through the tail vein at certain doses (see Table 5) at 1 h and 6 h respectively after the infection for a total of two administrations, with the volume of the drugs administered being 10 mL/kg. The survival of the animals in each group was observed within 7 days, and the survival rates of the mice were calculated. The control group was not given any drugs, and given only physiological saline, and the seven-day survival rate of the mice was 0.
The protective effects of the compound of formula (I-1) administered alone and in combination with avibactam on mice systemically infected with Klebsiella pneumoniae ATCC BAA2146 (NDM-1) are shown in Table 5.

[8] = test system: drug-resistant Enterobacteriaceae strains; test: Checkerboard combination, summary over Enterobacteriaceae strains; assay type: cell-based; settings: combined with avibactam; all of the 12 drug-resistant Enterobacteriaceae strains tested
Experimental: as §6, §7, §3
(3) Addition of the samples: 10 μL of the bacteria solution with a concentration of 6×10^5 CFU/mL was pipetted into each well of the 96-well plate. Each well contained the antibacterial drugs (the compound of formula (I-1) and the compound of formula (I-2)) diluted two-fold with broth and the aforementioned lactamase inhibitor or efflux pump inhibitor. […] The samples were mixed thoroughly. Three parallel experiments were set up for each concentration and the results were averaged. […]
(5) Calculation: The in vitro effect of each drug-inhibitor combination was analyzed by calculating the FICI value: FICI=(MIC of drug A in the combination/MIC of drug A alone)+ (MIC of drug B in the combination/MIC of drug B alone). […]

[9] = individual compound 16 mg/kg i.v. (tail vein) at 1 h and 6 h after infection
[10] = individual compound 32 mg/kg i.v. (tail vein) at 1 h and 6 h after infection

`CC1(C)[C@H](NC(=O)/C(=N\OC2(C(=O)O)CC2)c2csc(N)n2)C(=O)N1OS(=O)(=O)O` [Compound of formula (I-1)] was tested, and the MIC (Acinetobacter baumannii; ATCC17978, Acinetobacter baumannii ATCC 17978) was 16 µg/mL, the MIC (Acinetobacter baumannii; ATCC19606, Acinetobacter baumannii ATCC 19606) was 16 µg/mL and the MIC (Acinetobacter baumannii; Acinetobacter baumannii CCPM(A)-P-101633(CRAB)) was 32 µg/mL. For the same molecule, the MIC (Enterobacter cloacae; ATCC2468, Enterobacter cloacae ATCC 2468) was 2 µg/mL, the MIC (Enterobacter cloacae; Enterobacter cloacae CCPM(A)-P-111719) was 1 µg/mL and the MIC (Escherichia coli [1]; ATCC2469, Escherichia coli ATCC 2469) was 1 µg/mL. For the same molecule, the MIC (Escherichia coli [1]; Escherichia coli CCPM(A)-P-071301) was 2 µg/mL, the MIC (Klebsiella pneumoniae [2]; ATCC2146, individual compound, Klebsiella pneumoniae ATCC 2146) was 2 µg/mL and the MIC (Klebsiella pneumoniae [2]; ATCC700603, individual compound, Klebsiella pneumoniae ATCC 700603) was 4 µg/mL. The MIC (Klebsiella pneumoniae [2]; individual compound, Klebsiella pneumoniae CCPM(A)-0814R18) was 2 µg/mL, the MIC (Klebsiella pneumoniae [2]; individual compound, Klebsiella pneumoniae CCPM(A)-0814R33) was 2 µg/mL and the MIC (Klebsiella pneumoniae [2]; individual compound, Klebsiella pneumoniae CCPM(A)-0817R61) was 64 µg/mL. The MIC (Klebsiella pneumoniae [2]; individual compound, Klebsiella pneumoniae CCPM(A)-081301) was 2 µg/mL, the MIC (Klebsiella pneumoniae [2]; individual compound, Klebsiella pneumoniae CCPM(A)-081705) was 2 µg/mL and the MIC (Klebsiella pneumoniae [2]; individual compound, Klebsiella pneumoniae CCPM(A)-081715) was 2 µg/mL. It also gave an MIC (Klebsiella pneumoniae [2]; individual compound, Klebsiella pneumoniae CCPM(A)-081716) of 128 µg/mL, an MIC (Klebsiella pneumoniae [2]; individual compound, Klebsiella pneumoniae CCPM(A)-081729) of 2 µg/mL and an MIC (Pseudomonas aeruginosa [3]; Pseudomonas aeruginosa ATCC27853) of 16 µg/mL. It also gave an MIC (Pseudomonas aeruginosa [3]; Pseudomonas aeruginosa CCPM(A)-P-091626(CRPA)) of 32 µg/mL, an MIC (Pseudomonas aeruginosa [3]; Pseudomonas aeruginosa PAO1(CCPM(A)-P-09000032)) of 16 µg/mL and an MIC in combination (Escherichia coli [4]; compound of formula (I-1) combined with avibactam, Escherichia coli ATCC 2469) of 0.125 µg/mL. The MIC in combination (Escherichia coli [4]; compound of formula (I-1) combined with avibactam, Escherichia coli CCPM(A)-P-071301) was 0.25 µg/mL, the MIC in combination (Escherichia coli [4]; compound of formula (I-1) combined with vaborbactam, Escherichia coli CCPM(A)-P-071301) was 0.5 µg/mL and the MIC in combination (Klebsiella pneumoniae [5]; compound of formula (I-1) combined with avibactam, Klebsiella pneumoniae ATCC 2146) was 0.5 µg/mL. It also gave an MIC in combination (Klebsiella pneumoniae [5]; compound of formula (I-1) combined with avibactam, Klebsiella pneumoniae ATCC 700603) of 0.5 µg/mL, an MIC in combination (Klebsiella pneumoniae [5]; compound of formula (I-1) combined with avibactam, Klebsiella pneumoniae CCPM(A)-0814R18) of 0.25 µg/mL and an MIC in combination (Klebsiella pneumoniae [5]; compound of formula (I-1) combined with avibactam, Klebsiella pneumoniae CCPM(A)-0814R33) of 0.25 µg/mL. The MIC in combination (Klebsiella pneumoniae [5]; compound of formula (I-1) combined with avibactam, Klebsiella pneumoniae CCPM(A)-0817R61) was 1 µg/mL, the MIC in combination (Klebsiella pneumoniae [5]; compound of formula (I-1) combined with avibactam, Klebsiella pneumoniae CCPM(A)-081705) was 0.5 µg/mL and the MIC in combination (Klebsiella pneumoniae [5]; compound of formula (I-1) combined with avibactam, Klebsiella pneumoniae CCPM(A)-081715) was 0.5 µg/mL. The MIC in combination (Klebsiella pneumoniae [5]; compound of formula (I-1) combined with avibactam, Klebsiella pneumoniae CCPM(A)-081716) was 0.25 µg/mL, the MIC in combination (Klebsiella pneumoniae [5]; compound of formula (I-1) combined with avibactam, Klebsiella pneumoniae CCPM(A)-081729) was 0.5 µg/mL and the MIC in combination (Klebsiella pneumoniae [5]; compound of formula (I-1) combined with relebactam, Klebsiella pneumoniae ATCC 2146) was 0.5 µg/mL. The MIC in combination (Klebsiella pneumoniae [5]; compound of formula (I-1) combined with relebactam, Klebsiella pneumoniae ATCC 700603) was 0.125 µg/mL, the MIC in combination (Klebsiella pneumoniae [5]; compound of formula (I-1) combined with vaborbactam, Klebsiella pneumoniae ATCC 700603) was 0.5 µg/mL and the MIC in combination (Klebsiella pneumoniae [5]; compound of formula (I-1) combined with vaborbactam, Klebsiella pneumoniae CCPM(A)-0814R33) was 0.5 µg/mL. For the same molecule, the “reduction of MIC values on combination” value (Pseudomonas aeruginosa [6]; combined with PAβN, Pseudomonas aeruginosa ATCC27853 and PAO1 (CCPM(A)-P-09000032)) was “eight-fold”, the “reduction of MIC value on combination” value (Pseudomonas aeruginosa [6]; combined with PAβN, Pseudomonas aeruginosa CCPM(A)-P-091626 (CRPA)) was “four-fold” and the MIC in combination (Pseudomonas aeruginosa [6]; compound of formula (I-1) combined with PAβN, Pseudomonas aeruginosa ATCC27853) was 2 µg/mL. The MIC in combination (Pseudomonas aeruginosa [6]; compound of formula (I-1) combined with PAβN, Pseudomonas aeruginosa CCPM(A)-P-091626(CRPA)) was 8 µg/mL, the MIC in combination (Pseudomonas aeruginosa [6]; compound of formula (I-1) combined with PAβN, Pseudomonas aeruginosa PAO1(CCPM(A)-P-09000032)) was 2 µg/mL and the MIC in combination (Pseudomonas aeruginosa [6]; compound of formula (I-1) combined with berberine, Pseudomonas aeruginosa ATCC27853) was 16 µg/mL. It also gave an MIC in combination (Pseudomonas aeruginosa [6]; compound of formula (I-1) combined with berberine, Pseudomonas aeruginosa CCPM(A)-P-091626(CRPA)) of 32 µg/mL, an MIC in combination (Pseudomonas aeruginosa [6]; compound of formula (I-1) combined with berberine, Pseudomonas aeruginosa PAO1(CCPM(A)-P-09000032)) of 16 µg/mL and an MIC in combination (Pseudomonas aeruginosa [6]; compound of formula (I-1) combined with conessine, Pseudomonas aeruginosa PAO1(CCPM(A)-P-09000032)) of 16 µg/mL. For the same molecule, the “Survival rate of animals (%)” value [7, 9] was 20%, the “Number of animals survived” value [7, 9] was 1 and the “Survival rate of animals (%)” value [7, 10] was 60%. The “Number of animals survived” value [7, 10] was 3 and the “change of MIC values on combination” value [8] was “significantly reduced”.
